System: Burgundy amaranth (Amaranthus hypochondriacus)
Test: Herbicidal bioassay against Burgundy amaranth (foliar spray, evaluated 6 days after application)
Assay type: in vivo
Conditions: 144 h, read-out: (%) Mortality/Control at Concentration (μg/mL)
Text: As noted above, the herbicidal compositions can be chemically synthesized or derived from a biological organism. Here, the culture broth derived from the 100 L fermentation Burkholderia (A396) was extracted to give crude extract. The crude extract was then fractionated using reversed-phase C18 vacuum liquid chromatography (H2O/CH3OH) to give 5 fractions. These fractions were then screened for herbicidal activity using plant assay with Amaranthus hypochondriacus (Burgundy amaranth). The active fractions (F3 & F4) were then subjected to reversed phase HPLC to give pure compounds, which were then tested in the above mentioned bioassay to locate/identify the active compounds. […] To confirm the identity of the compounds, additional spectroscopic data such as LC-MS and NMR were recorded. Based on the detailed analysis of the data, the two compounds were identified as FR 901464 (MW 507) and spliceostatin C (MW 519). Note that different fermentation method would produce different (or no) amount of the below compound(s), some none at all.
Burgundy amaranth (Amaranthus hypochondriacus) plants were grown in a greenhouse to the 3-4 leaf stage in 2.5 cm square pots containing plant growth mix with slow release fertilizer. Treatments were then applied using a research cabinet track sprayer fitted with an 8001 nozzle and at a carrier volume of 20 gal/A. Negative controls were sprayed with water. Pots were blocked and randomized by treatment after spray and placed in a growth room at 25° C. and 50% RH, and watered as necessary. Plants were evaluated 6 days after application for visual damage and fresh weight. Data in Table 1 was subjected to ANOVA and means were separated using the Tukey method with 95% confidence intervals.

Compound | mortality at 0.65 µg/mL | mortality at 1.3 µg/mL
CC(=O)OC(C)/C=C\C(=O)NC1CC(C)C(C/C=C(C)/C=C/C2OC(C)(O)CC3(CO3)C2O)OC1C (stereo not shown) [FR901464] | 44% | 84%
CC(=O)OC(C)/C=C\C(=O)NC1CC(C)C(C/C=C(C)/C=C/C2CC3(CO3)CC(CC(=O)O)O2)OC1C (stereo not shown) [Spliceostatin C] | 44% | 80%
